{"source": "paper PMC3066212", "about": "“Functional Divergence among Silkworm Antimicrobial Peptide Paralogs by the Activities of Recombinant Proteins and the Induced Expression Profiles” (PLoS ONE, 2011)", "key": {"X. pv. campestris": {"tested_on": "X. pv. campestris", "experiment": "Ultrasensitive radial diffusion", "assay_type": "cell-based, Xanthomons pv. campestris", "settings": "5 µmol/L, 10 µL, 37°C 24 h (Fig. 3)"}, "[1]": {"tested_on": "ten tested bacteria (five Gram-positive, five Gram-negative)", "experiment": "Ultrasensitive radial diffusion, antimicrobial spectrum", "assay_type": "cell-based", "settings": "5 µmol/L, 10 µL in 2.7 mm pore on LB-medium plates, 37°C 24 h, n = 3 (Fig. 3)"}, "S. aureus": {"tested_on": "S. aureus", "experiment": "Ultrasensitive radial diffusion", "assay_type": "cell-based, Staphylococcus aureus", "settings": "5 µmol/L, 10 µL, 37°C 24 h (Fig. 3)", "description": "Figure 3 The antimicrobial spectrum of paralogs among each AMP gene family. The following microbes were used to test antimicrobial activities: Gram-positive bacteria: S. aureus (Sa), B. bombysepticus (Bb), B. subtilis (Bs), B. thuringiensis (Bt), B. thuringiensis subsp. galleriae (Btsg); Gram-negative bacteria: E. coli (Ec), S. marcescens (Sm), P. aeruginosa (Pa), X. pv. campestris (Xpc), R. dolaanacearum (Rd). Each sample (5 µmol/L, 10 µL) was dropped into the 2.7 mm pore on LB-medium plates and incubated at 37°C for 24 h as shown in Figure S3 for moricin family. The measure unit is millimeter (mm). […] Differences were significant at *P<0.01 among each recombinant AMP family.\nB. mori strain Dazao was from the Sericulture & Agri-Food Research Institute, Guangdong Academy of Agricultural Sciences, China. E. coli Rosetta™(DE3) strain was used to express recombinant AMPs. […]\nAntimicrobial activity of purified expression products was assayed using the ultrasensitive radial diffusion method and the MICs method seeded with Gram-negative or Gram-positive bacteria. […] The size of the clear area around the bacteria was measured, as shown in Figure S3 for the moricin family. […] Absorbance at 595 nm was measured and was repeated three times, and the MICs determined when the average absorbance was equal to the control sample."}, "R. dolaanacearum": {"tested_on": "R. dolaanacearum", "assay_type": "cell-based, Ralstonia dolaanacearum"}}, "data": [{"substance": "MNFAKILSFVFALVLALSMTSAAPEPRWKIFKKIEKMGRNIRDGIVKAGPAIEVLGSAKAIGK [BmcecB6, recombinant silkworm cecropin paralog representing B subtype, two extra N-terminal residues (Ala-Met)]", "values": [{"measurement": "antimicrobial activity against X. pv. campestris", "setting": "X. pv. campestris", "result": "not inhibited"}, {"measurement": "antimicrobial spectrum among the ten tested bacteria", "setting": "[1]", "result": "eight of ten tested bacteria"}, {"measurement": "antimicrobial activity against S. aureus", "setting": "S. aureus", "result": "not inhibited"}]}, {"substance": "MNFSRALFYVFAVFLVCASVMAAPEPRWKIFKKIEKVGQNIRDGIIKAGPAVAVVGQAATIAHGK [BmcecE, recombinant silkworm cecropin paralog, E subtype, two extra N-terminal residues (Ala-Met)]", "values": [{"measurement": "antimicrobial spectrum among the ten tested bacteria", "setting": "[1]", "result": "five of ten tested bacteria"}]}, {"substance": "MDFLKYFIVVLVALSLMVCSGQADPKIP--VKSLKKGGKIIAKGFKVLTAAGTAHEVYSHVRNRGNQG [BmmorLA1, recombinant silkworm moricin-like A1, two extra N-terminal residues (Ala-Met)]", "values": [{"measurement": "Minimal growth inhibition concentration (MIC), R. dolaanacearum", "setting": "R. dolaanacearum", "result": 1.25, "unit": "µmol/L"}]}, {"substance": "MNFVKILCVVLALMLALSMASAALEPKRKVFKIIEKIGRNVRGGVITAGPAVVVVGQAASVGM [BmcecC, recombinant silkworm cecropin paralog, C subtype, two extra N-terminal residues (Ala-Met)]", "values": [{"measurement": "antimicrobial spectrum among the ten tested bacteria", "setting": "[1]", "result": "no ability to inhibit the growth"}]}, {"substance": "MNILKLFLVFMVAMSLVSCSTAAPAKIP--IKAIKTVGKAVGKGLRAINIASTANDVFNFLKPKKRKH [Bmmor, recombinant silkworm moricin, two extra N-terminal residues (Ala-Met)]", "values": [{"measurement": "antimicrobial spectrum among the ten tested bacteria", "setting": "[1]", "result": "nine of ten tested bacteria"}, {"measurement": "Minimal growth inhibition concentration (MIC), R. dolaanacearum", "setting": "R. dolaanacearum", "result": 1.25, "unit": "µmol/L"}]}, {"substance": "MNFVRILSFVFALVLALGAVSAAPEPRWKLFKKIEKVGRNVRDGLIKAGPAIAVIGQAKSLGK [BmcecA1, recombinant silkworm cecropin paralog, A subtype, EK-digested, two extra N-terminal residues (Ala-Met)]", "values": [{"measurement": "antimicrobial spectrum among the ten tested bacteria", "setting": "[1]", "result": "five of ten tested bacteria"}]}]}
